Patent EP0423133B1, “ENZYMATIC RESOLUTION SYSTEMS AND COMPOUNDS USEFUL IN THE SYSTEMS AND THEIR REPARATIONS” (priority 1988, dated 1989)
Structures can show the parent of a compound that is named as a salt.

Columns and labels:
Protease XIV = assay: Rate of hydrolysis of single enantiomers by pH stat, enzyme I; assay type: biochemical, Streptomyces griseus; details: for Rate: 50 mM single enantiomer, 50 mM buffer pH 7.6, Example 6.2.3.2 (enzyme I in text, (G) in table)
Experimental: (§1) 15 ml of a solution containing one enantiomer of the ester at a concentration of 50 mM, and Na3PO4 buffer at 50 mM and pH 7.6 was observed using a pH stat device. 0.1 ml of a 50 mg/ml solution of protease enzyme I, made up from the commercially available preparation in 50 mM Na3PO4 buffer at pH 7.6, were added. Rates of hydrolysis of both enantiomers of the ester compound were determined for the protease enzyme. The ratio of the rates of hydrolysis for the two enantiomers for the two enantiomers with respect to the enzyme indicate the stereospecificity of that enzyme's hydrolytic action on the racemic mixture of the ester. No
evidence for the hydrolysis of the acetylthio ester portion of the substrate molecule was found.

[1] = tested on: Protease XXIV: bacterial protease; assay: Rate of hydrolysis of single enantiomers by pH stat, enzyme J; assay type: biochemical; details: for Rate: 50 mM single enantiomer, 50 mM buffer pH 7.6, Example 6.2.3.4 (Enzyme J in text, (H) in table)
Experimental: as §1, with “Enzyme J,” for “protease enzyme I,”, “the” for “the protease”, “No evidence for the hydrolysis of the acetylthio ester portion of the substrate molecule was found.” for “No”

Protease XXIII [2] = assay: Rate of hydrolysis of single enantiomers by pH stat, enzyme A; assay type: biochemical, Aspergillus oryzae; details: for Rate: 50 mM single enantiomer, 50 mM buffer pH 7.6, enzyme A
Experimental: as §1, with “of” for “of protease”, “enzyme A,” for “enzyme I,”, “mM Na3 P04” for “mM Na3PO4”, “the” for “the protease”, “No evidence for the hydrolysis of the acetylthio ester portion of the substrate molecule was found.” for “No”

[3] = target: T1, Protease VIII: "Subtilopeptidase A" (Bacillus licheniformis, UniProt P00780); assay: Rate of hydrolysis of single enantiomers by pH stat, enzyme B; assay type: biochemical; details: for Rate: 50 mM single enantiomer, 50 mM buffer pH 7.6, enzyme B
T1 sequence (P00780 106-379): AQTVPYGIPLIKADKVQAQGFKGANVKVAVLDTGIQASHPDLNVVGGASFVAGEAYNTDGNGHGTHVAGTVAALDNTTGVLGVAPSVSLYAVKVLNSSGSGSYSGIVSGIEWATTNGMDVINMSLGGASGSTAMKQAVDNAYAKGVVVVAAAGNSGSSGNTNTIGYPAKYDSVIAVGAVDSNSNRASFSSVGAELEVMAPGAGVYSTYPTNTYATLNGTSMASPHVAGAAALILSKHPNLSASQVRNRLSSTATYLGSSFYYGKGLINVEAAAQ
Experimental: as §1, with “of” for “of protease”, “enzyme B,” for “enzyme I,”, “mM Na3 P04” for “mM Na3PO4”, “the” for “the protease”, “No evidence for the hydrolysis of the acetylthio ester portion of the substrate molecule was found.” for “No”

[4] = target: T2, Protease XXVII: "Nagarse" (Bacillus amyloliquefaciens, UniProt P00782); assay: Rate of hydrolysis of single enantiomers by pH stat, enzyme D; assay type: biochemical; details: for Rate: 50 mM single enantiomer, 50 mM buffer pH 7.6, enzyme D
T2 sequence (P00782 108-382): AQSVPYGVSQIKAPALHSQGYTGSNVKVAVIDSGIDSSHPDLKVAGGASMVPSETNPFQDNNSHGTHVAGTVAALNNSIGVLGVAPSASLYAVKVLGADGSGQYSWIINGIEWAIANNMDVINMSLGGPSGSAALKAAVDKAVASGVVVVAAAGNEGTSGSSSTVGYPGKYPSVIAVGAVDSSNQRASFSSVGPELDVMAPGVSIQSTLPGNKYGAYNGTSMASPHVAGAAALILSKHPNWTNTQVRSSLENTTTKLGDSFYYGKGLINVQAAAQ
Experimental: as §1, with “of” for “of protease”, “enzyme D,” for “enzyme I,”, “mM Na3 P04” for “mM Na3PO4”, “the” for “the protease”, “No evidence for the hydrolysis of the thioacetyl ester portion of the substrate molecule was found.” for “No”

[5] = tested on: Candida lipase (Genzyme Corporation); assay: Asymmetric hydrolysis in a multiphase membrane bioreactor with enzyme G; assay type: biochemical, Candida cylindracea; details: first 45 minutes; 0.75M ester in MIBK, 3.0 grams lipase in membrane, pH 8.50
Description: The module was then drained.
This material was recrystallized from hexane.

intact microorganism = details: 400 mg dried cells, 160 mg (±)-substrate; Iriuchijima and Keiyu 1981; cited from earlier work
Prozyme 6 [6] = assay: Asymmetric hydrolysis in an extractive membrane reactor with enzyme F; assay type: biochemical, Aspergillus oryzae; details: for enantiomeric excess: chiral HPLC, enzyme in aqueous phase only, 6.3 hours
[7] = target: T2, Protease XXVII: "Nagarse"; assay: Homogeneous aqueous enzymatic resolution (ester hydrolysis) with enzyme D; assay type: biochemical; details: 10.0 mmol ester in 100 ml 0.2 M phosphate buffer pH 7.0, 100 mg enzyme D, 20-22 °C, 20 hours
Description: (§2) The enzymes used in Examples 6.2.1.1-6.2.1.17, 6.2.1.20-6.2.1.21, 6.2.1.23-6.2.1.28, 6.2.2.7, and 6.2.3.1-6.2.3.5 that follow were all proteases commercially available from Sigma Chemical Co., St. Louis, MO. These proteases are listed in each example using the Sigma numbering system, which is summarized below: • Protease VIII: "Subtilopeptidase A", product P-5380 (also known as subtilisin Carlsberg) • Protease XIV: from Streptomyces griseus, product P-5147 • Protease XVI: from Bacillus subtilis, product P-8775 • Protease XXIII: from Aspergillus oryzae, product P-4032 • Protease XXVII: "Nagarse", product P-4789 • Protease XXIV: bacterial protease, product P-8038 An additional protease enzyme, which was designated Prozyme 6, was obtained from the Amano Enzyme Corporation and used in Examples 6.2.1.18-6.2.19, 6.2.1.22, 6.2.1.29-6.2.1.30 and 6.2.2.1-6.2.2.4 described below. A pig liver esterase was used in Example 6.21.11; this enzyme, obtained from Sigma Chemical Company, was designated as their product E-3128. For examples 6.2.2.5-6.2.2.6, Candida lipase obtained from Genzyme Corporation was used. Finally, Candida lipase, product L-1754, obtained from Sigma Chemical Co. was used in Example 6.2.2.7.

Prozyme 6 [8] = assay: Homogeneous aqueous enzymatic resolution (ester hydrolysis) with enzyme F; assay type: biochemical, Aspergillus oryzae; details: for Conversion in Homogeneous Aqueous Reaction System: 30 °C
[9] = tested on: lipase from Candida cylindracea (Lipase OF); assay: Activity of the carrier lipase against the ester; assay type: biochemical; details: Meito Sangyo Company
Protease XXIII [10] = assay: Homogeneous aqueous enzymatic resolution (ester hydrolysis) with enzyme A; assay type: biochemical, Aspergillus oryzae; details: 10.0 mmol ester in 100 ml 0.2 M phosphate buffer pH 7.0, 100 mg enzyme A, 20-22 °C, 20 hours
Experimental: The enzymes used in Examples 6.2.1.1-6.2.1.17, 6.2.1.20-6.2.1.21, 6.2.1.23-6.2.1.28, 6.2.2.7, and 6.2.3.1-6.2.3.5 that follow were all proteases commercially available from Sigma Chemical Co., St. Louis, MO. […] For examples 6.2.2.5-6.2.2.6, Candida lipase obtained from Genzyme Corporation was used.
No further purification was performed.
The aqueous layer was retained.

Protease XVI = assay: Homogeneous aqueous enzymatic resolution (ester hydrolysis) with enzyme C; assay type: biochemical, Bacillus subtilis; details: 10.0 mmol ester in 100 ml 0.2 M phosphate buffer pH 7.0, 100 mg enzyme C, 20-22 °C, 20 hours
Description: as §2

[11] = target: T1, Protease VIII: "Subtilopeptidase A"; assay: Homogeneous aqueous enzymatic resolution (ester hydrolysis) with enzyme B; assay type: biochemical; details: 10.0 mmol ester in 100 ml 0.2 M phosphate buffer pH 7.0, 100 mg enzyme B, 20-22 °C, 20 hours
Prozyme 6 [12] = assay: Asymmetric hydrolysis in an extractive dispersion reactor with enzyme F; assay type: biochemical, Aspergillus oryzae; details: 3.38 gm ester in 100 ml 0.2 M sodium phosphate buffer pH 7.0 and 100 ml hexane, 100 mg Prozyme 6, 3.5 hours at room temperature, vigorous stirring
Experimental: In this Example, the hexane was dispersed in the reaction vessel to extract the inhibitory ibuprofen acid as it is formed. The
reaction was started by adding 100 mg of the protease from the fungus Aspergillus oryzae (from Amano Enzyme Corporation, Prozyme 6, 60,000 units per mg of solid).
After 3.5 hours at room temperature with vigorous stirring, the solution was acidified to pH 2 and extracted with 2 volumes of hexane. The aqueous phase was saved for subsequent workup. The hexane phase was dried over MgS04 and evaporated to dryness. The resolved ibuprofen product so recovered consisted of 490 mg of white powder, indicating 24% conversion. The optical rotation was -0.568 (c = 1.015 in ethanol), indicating the R isomer of ibuprofen.

## CC(=O)SC[C@H](C)C(=O)OCS(=O)(=O)O [Compound 15, Potassium Salt of the Sulfomethyl Ester of L-(+)-S-3-Acetylthio-2-methylpropanoic Acid]
Protease XIV
  Rate: 105 umols/hr/mg
Protease XIV; Example 6.2.3.2, pH 7.6
  Rate Ratio L/D: 1.7
[1]
  Rate: 65 umols/hr/mg
[1]; Example 6.2.3.4, pH 7.6
  Rate Ratio L/D: 1.1
Protease XXIII [2]
  Rate: 12 umols/hr/mg
Protease XXIII [2]; enzyme A, pH 7.6
  Rate Ratio L/D: 2.3
[3]
  Rate: 135 umols/hr/mg
[3]; enzyme B, pH 7.6
  Rate Ratio L/D: 2.1
[4]
  Rate: 29 umols/hr/mg
[4]; enzyme D, pH 7.6
  Rate Ratio L/D: 1.1

## CC(=O)SC[C@@H](C)C(=O)OCS(=O)(=O)O [Compound 14, Potassium Salt of the Sulfomethyl Ester of D-(-)-S-3-Acetylthio-2-methylpropanoic Acid]
Protease XIV
  Rate: 63 umols/hr/mg
[1]
  Rate: 61 umols/hr/mg
Protease XXIII [2]
  Rate: 5.3 umols/hr/mg
[3]
  Rate: 65 umols/hr/mg
[4]
  Rate: 27 umols/hr/mg

## COC(=O)C(C)c1ccc2cc(OC)ccc2c1 (racemic) [Compound 18, Methyl Ester of 2-(6-Methoxy-2-naphthyl)propanoic Acid]
[5]
  average rate: 35 amol/hr
Intact microorganism
  substrate converted: 16.3%

## CC(C)Cc1ccc(C(C)C(=O)OCS(=O)(=O)O)cc1 (racemic) [Compound 1, Sodium Salt of 4-Sulfomethyl Ester of 2-(4-Isobutylphenyl) propanoic Acid]
Prozyme 6 [6]; R ibuprofen acid product
  enantiomeric excess: 99.3%
Prozyme 6 [6]; S ibuprofen from hydrolysis (pH 12) of the unconverted ester
  enantiomeric excess: 98.9%
Prozyme 6 [6]; enzyme in aqueous phase and in membrane pores (polyacrylonitrile fibers, 80% cyclohexane:20% toluene), 0.5 M ester, 3 gm protease (F), 6.75 hours at 30 °C
  conversion of the racemic ester to the acid: 48.3%
Prozyme 6 [6]; enzyme in aqueous phase only (cellulose dialysis fibers, hexane), 32.51 gm ester in 1000 ml 0.1 M sodium phosphate buffer pH 7.0, 2 gm protease (F), 6.3 hours at room temperature
  conversion of the racemic ester to ibuprofen acid: 50%
[7]
  % CONVERSION: 34.0%
[7]; acid product, R
  % e.e.: 37.7%
Prozyme 6 [8]; 3.22 gm ester in 100 ml 0.2 M sodium phosphate buffer pH 7.0, 100 mg protease (F), 20 hours at room temperature
  conversion of racemic ester to acid: 45%
Prozyme 6 [8]; After 6.49 hours at 30 °C, 0.5 M ester in 325 ml 0.1 M sodium phosphate buffer pH 7.0, 3 gm enzyme (F)
  conversion: 37.7%
Prozyme 6 [8]; Time 6.75 hrs, 0.5 M ester in 325 ml 0.1 M sodium phosphate buffer pH 7.0, 3 gm enzyme (F)
  Conversion in Homogeneous Aqueous Reaction System: 37.7%
Prozyme 6 [8]; Time 23.1 hrs, 0.5 M ester in 325 ml 0.1 M sodium phosphate buffer pH 7.0, 3 gm enzyme (F)
  Conversion in Homogeneous Aqueous Reaction System: 40.9%
[9]
  activity of the enzyme against the ester: inactive
Protease XXIII [10]
  % CONVERSION: 37.9%
Protease XXIII [10]; acid product, R
  % e.e.: >99%
Protease XVI
  % CONVERSION: 27.2%
Protease XVI; acid product, R
  % e.e.: 70.7%
[11]
  % CONVERSION: 29.1%
[11]; acid product, R
  % e.e.: 44.6%
Prozyme 6 [12]
  conversion: 24%
